Assay results from patent US8785439B2, “2,5,7-substituted oxazolopyrimidine derivatives” (Sanofi, priority 2010, dated 2014).

target: T1, human Edg-1 receptor (Homo sapiens, UniProt P21453); test: GTP-γ-S assay using human Edg-1 receptors (SPA, CHO Flp-In cell membrane preparation); type: biochemical; details: test compound at 10 μM; high control 10 μM S1P regarded as 100% activation; background-corrected; triplicate
T1 construct: FLAG (N); expressed in transfected cells; membrane preparation
Procedure, shortened: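 Membranes from CHO Flp-In cells stably overexpressing N-terminally FLAG-tagged human Edg-1 were used in a scintillation-proximity GTP-γ-S binding assay to measure receptor activation by compounds.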

T1 sequence (P21453 whole entry): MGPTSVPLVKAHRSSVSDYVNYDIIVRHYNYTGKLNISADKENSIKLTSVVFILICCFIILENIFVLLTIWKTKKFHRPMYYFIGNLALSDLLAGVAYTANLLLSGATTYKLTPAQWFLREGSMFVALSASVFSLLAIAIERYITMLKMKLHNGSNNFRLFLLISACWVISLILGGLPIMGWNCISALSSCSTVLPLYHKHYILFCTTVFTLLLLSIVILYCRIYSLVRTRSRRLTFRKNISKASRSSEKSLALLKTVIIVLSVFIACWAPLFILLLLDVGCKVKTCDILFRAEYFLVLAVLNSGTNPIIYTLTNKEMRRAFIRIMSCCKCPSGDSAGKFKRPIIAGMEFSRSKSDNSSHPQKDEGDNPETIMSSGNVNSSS

| % Activation (Edg-1 receptor activation in percent of the activation by 10 μM S1P) | SMILES |
| --- | --- |
| 58% | CCCOc1nc(NC2CCC(C)CC2)nc2oc(-c3cc(F)ccc3Cl)nc12 (stereo not drawn) [Example 148, [2-(2-chloro-5-fluoro-phenyl)-7-propoxy-oxazolo[5,4-d]pyrimidin-5-yl]-(4-methyl-cyclohexyl)-amine] |

same assay, conditions: test compound at 10 μM; high control 10 μM S1P regarded as 100% activation; background-corrected; triplicate; read-out: % Activation (Edg-1 receptor activation in percent of the activation by 10 μM S1P)

| activation at 10 µM | SMILES |
| --- | --- |
| 104% | CCCOc1nc(Oc2ccc(C#N)c(F)c2)nc2oc(-c3cccc(C)c3)nc12 [Example 134, 2-fluoro-4-(7-propoxy-2-(3-methyl-phenyl)-oxazolo[5,4-d]pyrimidin-5-yloxy)-benzonitrile] |
| 1% | CCCOc1nc(Oc2ccc(C)cc2OC)nc2oc(-c3cccc(C)c3)nc12 [Example 135, 5-(2-methoxy-4-methyl-phenoxy)-7-propoxy-2-(3-methyl-phenyl)-oxazolo[5,4-d]pyrimidine] |
| 91% | CCCOc1nc(Oc2ccc(OC)c(OC)c2)nc2oc(-c3cccc(C)c3)nc12 [Example 136, 5-(3,4-dimethoxy-phenoxy)-7-propoxy-2-(3-methyl-phenyl)-oxazolo[5,4-d]pyrimidine] |
| 89% | CCCOc1nc(Oc2cc(C)ccc2Cl)nc2oc(-c3cccc(C)c3)nc12 [Example 137, 5-(2-chloro-5-methyl-phenoxy)-7-propoxy-2-(3-methyl-phenyl)-oxazolo[5,4-d]pyrimidine] |
| 97% | CCCOc1nc(Oc2cc(F)cc(Cl)c2)nc2oc(-c3cccc(C)c3)nc12 [Example 138, 5-(3-chloro-5-fluoro-phenoxy)-7-propoxy-2-(3-methyl-phenyl)-oxazolo[5,4-d]pyrimidine] |
| 120% | CCCOc1nc(Oc2ccccc2SC)nc2oc(-c3cccc(C)c3)nc12 [Example 139, 5-(2-methylsulfanyl-phenoxy)-7-propoxy-2-(3-methyl-phenyl)-oxazolo[5,4-d]pyrimidine] |
| 60% | CCCOc1nc(Oc2ccc(Cl)c(C)c2)nc2oc(-c3cccc(C)c3)nc12 [Example 140, 5-(4-chloro-3-methyl-phenoxy)-7-propoxy-2-(3-methyl-phenyl)-oxazolo[5,4-d]pyrimidine] |
| 103% | CCCOc1nc(Oc2ccccc2C(F)(F)F)nc2oc(-c3cccc(C)c3)nc12 [Example 141, 7-propoxy-2-(3-methyl-phenyl)-5-(2-trifluoromethyl-phenoxy)-oxazolo[5,4-d]pyrimidine] |
| 50% | CCCOc1nc(Oc2c(C)cc(C)cc2C)nc2oc(-c3cccc(C)c3)nc12 [Example 142, 7-propoxy-2-(3-methyl-phenyl)-5-(2,4,6-trimethyl-phenoxy)-oxazolo[5,4-d]pyrimidine] |
| 52% | CCCOc1nc(Oc2cc(C(F)(F)F)ccc2Cl)nc2oc(-c3cccc(C)c3)nc12 [Example 143, 5-(2-chloro-5-trifluoromethyl-phenoxy)-7-propoxy-2-(3-methyl-phenyl)-oxazolo[5,4-d]pyrimidine] |
| 76% | CCCOc1nc(Oc2cc(F)cc(C(F)(F)F)c2)nc2oc(-c3cccc(C)c3)nc12 [Example 144, 5-(3-fluoro-5-trifluoromethyl-phenoxy)-7-propoxy-2-(3-methyl-phenyl)-oxazolo[5,4-d]pyrimidine] |
| 82% | CCCOc1nc(Oc2ccc(C(F)(F)F)cc2Cl)nc2oc(-c3cccc(C)c3)nc12 [Example 145, 5-(2-chloro-4-trifluoromethyl-phenoxy)-7-propoxy-2-(3-methyl-phenyl)-oxazolo[5,4-d]pyrimidine] |
| 126% | CCCOc1ccccc1Oc1nc(OCCC)c2nc(-c3cccc(C)c3)oc2n1 [Example 146, 7-propoxy-5-(2-propoxy-phenoxy)-2-(3-methyl-phenyl)-oxazolo[5,4-d]pyrimidine] |
| 63% | CCCOc1nc(N[C@H]2CCC[C@H](C)C2)nc2oc(-c3cc(F)ccc3Cl)nc12 [Example 147, [2-(2-chloro-5-fluoro-phenyl)-7-propoxy-oxazolo[5,4-d]pyrimidin-5-yl]-((1S,3S)-3-methyl-cyclohexyl)-amine] |
| 70% | CCCOc1nc(NC2CCCCC2)nc2oc(-c3cc(F)ccc3Cl)nc12 [Example 149, [2-(2-chloro-5-fluoro-phenyl)-7-propoxy-oxazolo[5,4-d]pyrimidin-5-yl]-cyclohexyl-amine] |
| 92% | CCCOc1nc(Sc2ccccc2)nc2oc(-c3cc(F)ccc3Cl)nc12 [Example 150, 2-(2-chloro-5-fluoro-phenyl)-5-phenylsulfanyl-7-propoxy-oxazolo[5,4-d]pyrimidine] |
| 66% | CCCOc1nc(Sc2cc(C)oc2C)nc2oc(-c3cc(F)ccc3Cl)nc12 [Example 151, 2-(2-chloro-5-fluoro-phenyl)-5-(2,5-dimethyl-furan-3-ylsulfanyl)-7-propoxy-oxazolo[5,4-d]pyrimidine] |
| 46% | CCCOc1nc(OCC2(C)COC2)nc2oc(-c3cc(F)ccc3Cl)nc12 [Example 152, 2-(2-chloro-5-fluoro-phenyl)-5-(3-methyl-oxetan-3-ylmethoxy)-7-propoxy-oxazolo[5,4-d]pyrimidine] |
| 108% | CCCOc1nc(Sc2cc(F)ccc2C)nc2oc(-c3cc(F)ccc3Cl)nc12 [Example 153, 2-(2-chloro-5-fluoro-phenyl)-5-(5-fluoro-2-methyl-phenylsulfanyl)-7-propoxy-oxazolo[5,4-d]pyrimidine] |
| 87% | CCCOc1nc(OC2CCC(C(F)(F)F)CC2)nc2oc(-c3cc(F)ccc3Cl)nc12 (stereo not drawn) [Example 154, 2-(2-chloro-5-fluoro-phenyl)-7-propoxy-5-(4-trifluoromethyl-cyclohexyloxy)-oxazolo[5,4-d]pyrimidine] |
| 62% | CCCOc1nc(Sc2ccc(C)cn2)nc2oc(-c3cc(F)ccc3Cl)nc12 [Example 155, 2-(2-chloro-5-fluoro-phenyl)-5-(5-methyl-pyridin-2-ylsulfanyl)-7-propoxy-oxazolo[5,4-d]pyrimidine] |
| 40% | CCCOc1nc(Sc2ccccc2)nc2oc(-c3ccc(Cl)c(Cl)c3)nc12 [Example 156, 2-(3,4-dichloro-phenyl)-5-phenylsulfanyl-7-propoxy-oxazolo[5,4-d]pyrimidine] |
| 92% | CCCOc1nc(Oc2cc(F)ccc2C)nc2oc(-c3ccc(Cl)c(Cl)c3)nc12 [Example 157, 2-(3,4-dichloro-phenyl)-5-(5-fluoro-2-methyl-phenoxy)-7-propoxy-oxazolo[5,4-d]pyrimidine] |
| 69% | Fc1ccccc1Oc1nc(OCC2CC2)c2nc(-c3ccc(Cl)c(Cl)c3)oc2n1 [Example 158, 7-cyclopropylmethoxy-2-(3,4-dichloro-phenyl)-5-(2-fluoro-phenoxy)-oxazolo[5,4-d]pyrimidine] |
| 55% | Cc1ccc(F)cc1Oc1nc(OCC2CC2)c2nc(-c3ccc(Cl)c(Cl)c3)oc2n1 [Example 159, 7-cyclopropylmethoxy-2-(3,4-dichloro-phenyl)-5-(5-fluoro-2-methyl-phenoxy)-oxazolo[5,4-d]pyrimidine] |
| 75% | CCCOc1nc(Oc2cncc(F)c2)nc2oc(-c3ccc(Cl)c(Cl)c3)nc12 [Example 160, 2-(3,4-dichloro-phenyl)-5-(5-fluoro-pyridin-3-yloxy)-7-propoxy-oxazolo[5,4-d]pyrimidine] |
